The text below walks through data of patent US5206234A, “Benzolactam analogs as antagonists of CCK” (priority 1991, dated 1993).

Test [1] concerns CCK-B receptors. The settings on record: cited from earlier work.
The target in test [2] is T1, CCK receptor (Brain, cerebral cortex) (Cavia porcellus, UniProt H0VZC5).
T1 construct: Cerebral cortex was dissected and used as a receptor source; from tissue; host or cells: cerebral cortex membranes of male Hartley guinea pigs
T1 sequence (H0VZC5 1-426): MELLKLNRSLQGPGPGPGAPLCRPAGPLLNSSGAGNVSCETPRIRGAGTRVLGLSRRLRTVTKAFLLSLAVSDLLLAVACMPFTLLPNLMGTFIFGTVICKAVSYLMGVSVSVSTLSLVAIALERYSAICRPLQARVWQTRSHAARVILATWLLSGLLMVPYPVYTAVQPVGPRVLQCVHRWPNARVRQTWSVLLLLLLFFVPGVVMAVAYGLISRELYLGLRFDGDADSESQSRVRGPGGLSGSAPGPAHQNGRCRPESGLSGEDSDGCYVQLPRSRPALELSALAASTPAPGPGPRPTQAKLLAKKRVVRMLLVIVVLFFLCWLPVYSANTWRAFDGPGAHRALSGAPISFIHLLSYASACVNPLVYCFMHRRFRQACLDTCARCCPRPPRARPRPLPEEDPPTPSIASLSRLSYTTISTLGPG
In words: CCK Receptor Binding (Brain), inhibition of 125I-CCK-33 binding. Also noted: species or system guinea pig (Male Hartley). The settings on record: head prints ^25 I-CCK; guinea pig cerebral cortex. As to the method: CCK-33 was radiolabeled and the binding was performed according to the description for the pancreas method with modifications according to Saito et al., J. Neurochem. 37:483-490, 1981.
Male Hartley guinea pigs (300-500 g) were sacrificed by decapitation and the brains were removed and placed in ice-cold 50 mM Tris HCl plus 7.58 g/l Trizma-7.4 (pH 7.4 at 25° C.). Cerebral cortex was dissected and used as a receptor source. Each gram of fresh guinea pig brain tissue was homogenized in 10 ml of Tris/Trizma buffer with a Brinkman polytron PT-10. The homogenates were centrifuged at 42,000 g for 15 minutes. Pellets were resuspended in Tris Buffer, centrifuged as above and resuspended in 200 volumes of binding assay buffer (10 mM N-2-hydroxyethyl-piperazine-N'-2-ethane sulfonic acid (HEPES), 5 mM MgCl2, 0.25 mg/ml bacitracin, 1 mM ethylene glycol-bis-(β-aminoethylether-N,N'-tetraacetic acid) (EGTA), and 0.4% bovine serum albumin (BSA)). […] All assays were run in duplicate or triplicate. The reaction mixtures were incubated at 25° C. for 2 hours and centrifuged in a Beckman Microfuge (4 minutes) immediately after adding 1 ml of ice-cold incubation buffer. The supernatant was aspirated and discarded, pellets were counted with a Beckman gamma 5000.

Test [3] has as its target T2, Gastrin receptor (Gastric Glands) (Cavia porcellus, UniProt H0VZC5).
T2 construct: from tissue; host or cells: gastric mucosal glands of male Hartley guinea pigs
T2 sequence (H0VZC5 1-426): T1 sequence (H0VZC5 1-426)
Briefly: Gastrin Receptor Binding in Guinea Pig Gastric Glands. Also noted: species or system guinea pig (male Hartley). Conditions: head prints ^25 I-Gastrin, read-out: Receptor binding IC50, 125I-Gastrin Gastric Glands. How it is done:
Guinea pig gastric mucosal glands were prepared by the procedure of Berglingh and Obrink Acta Physiol. Scand. 96: 150 (1976) with a slight modification according to Praissman et al. C. J. Receptor Res. 3: (1983). Gastric mucosa from guinea pigs (300-500 g body weight, male Hartley) were washed thoroughly and minced with fine scissors in standard buffer consisting of the following: 130 mM NaCl, 12 mM NaHCO3, 3 mM NaH2 PO4, 3 mM Na2 HPO4, 3 mM K2 HPO4, 2 mM MgSO4, 1 mM CaCl2, 5 mM glucose and 4 mM L-glutamine, 25 mM HEPES at pH 7.4. The minced tissues were washed and then incubated in a 37° C. shaker bath for 40 minutes with the buffer containing 0.1% collagenase and 0.1% BSA and bubbled with 95% O2 and 5% CO2. The tissues were passed twice through a 5 ml glass syringe to liberate the gastric glands, and then filtered through 200 mesh nylon. The filtered glands were centrifuged at 270 g for 5 minutes and washed twice by resuspension and centrifugation.
The washed guinea pig gastric glands prepared as above were resuspended in 25 ml of standard buffer containing 0.25 mg/ml of bacitracin. For binding studies, to 220 μl of gastric glands in triplicate tubes, 10 μl of buffer (for total binding) or gastrin (1 μM final concentration, for nonspecific binding) or test compound and 10 μl of ^125 I-gastrin (NEN, 2200 Ci/mmole, 25 pM final) or ^3 H-pentagastrin (NEN 22 Ci/mmole, 1 nM final) were added. The tubes were aerated with 95% O2 and 5% CO2 and capped. The reaction mixtures after incubation at 25° C. for 30 minutes were filtered under reduced pressure on glass G/F B filters (Whatman) and immediately washed further with 4×4 ml of standard buffer containing 0.1% BSA. The radioactivity on the filters was measured using a Beckman gamma 5500 for ^125 I-gastrin or liquid scintillation counting for ^3 H-pentagastrin.

Test [4] addresses T3, CCK receptor (Pancreas) (Rattus norvegicus, UniProt P30551).
T3 construct: The whole pancreas was dissected free of fat tissue and was homogenized; from tissue; host or cells: pancreas membranes of male Sprague-Dawley rats
T3 sequence (P30551 1-444): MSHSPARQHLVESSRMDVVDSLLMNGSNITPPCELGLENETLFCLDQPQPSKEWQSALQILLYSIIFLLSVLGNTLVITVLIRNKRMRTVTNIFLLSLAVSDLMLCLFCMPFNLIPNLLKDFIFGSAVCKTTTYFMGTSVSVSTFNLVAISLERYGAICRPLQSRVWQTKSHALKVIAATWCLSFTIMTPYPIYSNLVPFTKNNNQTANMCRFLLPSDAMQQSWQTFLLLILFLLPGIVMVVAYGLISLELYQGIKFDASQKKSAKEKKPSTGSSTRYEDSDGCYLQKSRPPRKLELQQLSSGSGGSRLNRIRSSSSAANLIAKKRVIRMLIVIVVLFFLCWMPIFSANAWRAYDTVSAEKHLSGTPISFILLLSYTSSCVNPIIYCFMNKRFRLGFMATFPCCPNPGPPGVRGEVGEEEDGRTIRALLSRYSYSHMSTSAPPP
Briefly: CCK Receptor Binding (Pancreas), inhibition of 125I-CCK-33 binding. On the set-up: species or system rat (Male Sprague-Dawley). The settings on record: 125I-CCK-33, rat pancreas membranes. As to the method: CCK-33 was radiolabeled with ^125 I-Bolton Hunter reagent (2000 Ci/mmole) as described by Sankara et al. (J. Biol. Chem. 254: 9349-9351, 1979). Receptor binding was performed according to Innis and Snyder (Proc. Natl. Acad. Sci. 77, 6917-6921, 1980) with the minor modification of adding the additional protease inhibitors, phenylmethane sulfonyl fluoride and o-phenanthroline. The latter two compounds have no effect on the ^125 I-CCK receptor binding assay.
Male Sprague-Dawley rats (200-350 g) were sacrificed by decapitation. The whole pancreas was dissected free of fat tissue and was homogenized in 20 volumes of ice-cold 50 mM Tris HCl (pH 7.7 at 25° C.) with a Brinkmann Polytron PT 10. The homogenates were centrifuged at 48,000 g for 10 min. Pellets were resuspended in Tris Buffer, centrifuged as above and resuspended in 200 volumes of binding assay buffer (50 mM Tris HCl, pH 7.7 at 25° C., 5 mM dithiothrietol, 0.1 mM bacitracin, 1.2 mM phenylmethane sulfonyl fluoride and 0.5 mM o-phenanthroline). […] All assays were run in duplicate or triplicate. The reaction mixtures were incubated at 37° C. for 30 minutes and centrifuged in a Beckman Microfuge (4 minutes) immediately after adding 1 ml of ice-cold incubation buffer. The supernatant was aspirated and discarded, pellets were counted with a Beckman gamma 5000. For Scatchard analysis (Ann. N.Y. Acad. Sci. 51: 660, 1949), ^125 I-CCK-33 was progressively diluted with increasing concentrations of CCK-33.
A Ki value (dissociation constant of inhibitor) of the compounds of Formula I was estimated.

For test [5], the system named is CCK-A receptors. The settings on record: cited from earlier work.

The term IC50 denotes the concentration needed to halve the response being measured.

For the compound `CSCC[C@H](NC(=O)[C@H](Cc1c[nH]c2ccccc12)NC(=O)CCNC(=O)OC(C)(C)C)C(=O)N[C@@H](CC(=O)O)C(=O)N[C@@H](Cc1ccccc1)C(N)=O` [pentagastrin], the “Affinity for CCK-B receptors” value in test [1] is reported as “high affinity”.
Consider `O=C(Nc1cccc2ccccc12)NC1CCc2ccccc2N(CC(=O)N2CCCC2)C1=O` (stereo not drawn) [Example 11, 1-{[2,3,4,5-Tetrahydro-3-{[[(1-naphthalenyl)amino]carbonyl]amino}-2-oxo-1H-1-benzazepin-1-yl]acetyl}pyrrolidine], for which the values for the IC50 in test [2], in test [3] and in test [4] were 0.65 µM, 0.46 µM and 1.7 µM, respectively.
`Cc1ccc(NC(=O)NC2CCc3ccccc3N(CC(=O)OC(C)(C)C)C2=O)cc1` (stereo not drawn) [Example 12]: the IC50 in test [2] was 0.66 µM; in test [3] it was 0.13 µM; in test [4] it was 0.17 µM.
Regarding `COc1cccc(NC(=O)NC2CCc3ccccc3N(CC(=O)O)C2=O)c1` (stereo not drawn) [Example 3], the figures for the half-maximal inhibitory concentration (IC50) in test [2], in test [3] and in test [4] were 8.6 µM, 3.1 µM and 2.1 µM, respectively.
As for `Cc1cccc(NC(=O)NC2CCc3ccccc3N(CC(=O)N3CCN(C)CC3)C2=O)c1` (stereo not drawn) [Example 7, 1-Methyl-4-{[2,3,4,5-tetrahydro-3-{[[(3-methylphenyl)amino]carbonyl]amino}-2-oxo-1H-1-benzazepin-1-yl]aceyl}piperazine], the half-inhibitory concentration (IC50) is 5 µM in test [2], 0.61 µM in test [3] and 0.97 µM in test [4].
`CSCC[C@H](NC(=O)[C@H](Cc1ccc(O)cc1)NC(=O)[C@@H](N)CC(=O)O)C(=O)NCC(=O)N[C@@H](Cc1c[nH]c2ccccc12)C(=O)N[C@@H](CCSC)C(=O)N[C@@H](CC(=O)O)C(=O)N[C@@H](Cc1ccccc1)C(N)=O` [CCK-8d]: the “Affinity for CCK-A receptors” value in test [5] was “lower affinity”.
As for “gastrin: structurally related neuropeptides which exist in gastrointestinal tissue and in the central nervous system”, the “Affinity for CCK-A receptors” value in test [5] is “lower affinity”.
